Data set [1] relates to mice. As to the kind of experiment: Intravenous toxicity in mice (LD50). Type of data set: in vivo. The settings on record: concentration administered 300 mgI/ml. The text has this: (§1) As indicated above, the new non-ionic compounds according to the invention have shown markedly low levels of toxicity, especially in intracerebral tests. […] It will be seen that all the new compounds listed are very much better than the known compounds in the intracerebral test.
(§2) Intravenous and Intracerebral Toxicity
(§3) Most of the compounds were so inert that it was not physically possible to inject sufficient substance to kill 50% of the mice and in such cases only a minimum value can be given for the LD50.

Data set [2] has as its system mice. As to the kind of experiment: Intracerebral toxicity in mice (LD50). Type of data set: in vivo.
Source text: as §1, §2, §3

A further data set can be described thus: Solubility in water. Type of data set: physicochemical. The settings on record: water, room temperature; read-out: Solubility in water at room temperature (class).
Data set [3] can be described thus: Osmolality of aqueous solution. Type of data set: physicochemical. To be noted: 37° C.; 300 mg I/ml. The method, then:
As indicated above, the compounds according to the invention are of low osmolality as compared to conventional ionic contrast agents and many of the compounds show even lower osmolality values than would have been expected. The observed osmolality in each case would be expected to be about 0.8 mol/kg but compounds 3, 33, 35, 44 and 11 identified in Table I have shown osmolality values of 0.47, 0.48, 0.61, 0.53 and 0.48 mol/kg respectively at 37° C. (300 mg I ml). The last two compounds in Table 2, which are ionic compounds shown for comparison, have osmolality values of about 1.6 mol/kg.

The nature of the next data set: Viscosity. The class given is physicochemical. To be noted: 20° C.; 300 mgI/ml. From the text: However, the preferred compounds listed above in relation to the myelographic field are also very useful in cardiovascular visualisation due to their extremely good tolerance.
The conditions of data set [4]: subarachnoideal space; in words; cited from earlier work.
Setting [5] is: 300 mgI/ml, dose 0.05 ml/20 g mouse.
Setting [6] is: 300 mgI/ml, dose 0.10 ml/20 g mouse.

By solubility is commonly meant the concentration that dissolves in the medium under given conditions.

A value given as a limit tells only on which side of the number the result lay.

For `CC(=O)Nc1c(I)c(C(=O)N(C)C[C@H](O)[C@@H](O)[C@H](O)[C@H](O)CO)c(I)c(N(C)C(C)=O)c1I` [Compound 3, N-(N-methyl-3,5-diacetamido-2,4,6-triiodobenzoyl)-N-methyl glucamine], the “Intravenous LD50” value with mice [1] is given as 6000 mgI/kg. Moreover, in the data set on mice [2] (setting [5]), the “Intracerebral LD50” value is listed as above 750 mgI/kg. Besides, the solubility in “Solubility in water” was above 500 mg/mL. Also, the Osmolality in data set [3] was 0.47 mol/kg.

On to `CC(=O)Nc1c(I)c(C(=O)N(C)CC(O)CO)c(I)c(C(=O)N(C)CC(O)CO)c1I` (stereo not drawn) [Compound 9, 3,5-Bis-[N-(2,3-dihydroxypropyl)-N-methylcarbomoyl]-2,4,6-triiodoacetanilide], for which the “Intravenous LD50” value in the data set with mice [1] worked out at 13500 mgI/kg. The “Intracerebral LD50” value with mice [2] (setting [6]) is given as “about 1500 mgI/kg”. The solubility in the data set “Solubility in water” was above 500 mg/mL. In addition, the Viscosity in “Viscosity” was 7.1 cp.

Consider `CC(=O)Nc1c(I)c(C(=O)N[C@H]2C(O)O[C@H](CO)[C@@H](O)[C@@H]2O)c(I)c(N(C)C(C)=O)c1I` (stereo partly drawn) [Compound 11, N-(N-methyl-3,5-diacetamido-2,4,6-triiodobenzoyl)-glucosamine], for which the “Intravenous LD50” value in the data set on mice [1] was found to be 15000 mgI/kg. Further, the “Intracerebral LD50” value with mice [2] (setting [6]) is listed as above 1500 mgI/kg. Moreover, the solubility in “Solubility in water” is above 500 mg/mL. The Osmolality in data set [3] turned out to be 0.48 mol/kg.

Take `CC(=O)Nc1c(I)c(C(=O)NC[C@H](O)[C@@H](O)[C@H](O)[C@H](O)CO)c(I)c(N(C)C(C)=O)c1I` [Compound 33, N-(N-methyl-3,5-diacetamido-2,4,6-triiodobenzoyl)-D-glucamine]: the “Intravenous LD50” value in the data set with mice [1] is on record as 14250 mgI/kg. Moreover, the “Intracerebral LD50” value in the data set with mice [2] (setting [5]) was above 750 mgI/kg; in the data set with mice [2] (setting [6]), above 1500 mgI/kg. Moreover, the solubility in the data set “Solubility in water” was above 500 mg/mL. The molecule further yielded an Osmolality in data set [3] of 0.48 mol/kg.

As for `CC(=O)N(C)c1c(I)c(C(=O)N(C)C[C@H](O)[C@@H](O)[C@H](O)[C@H](O)CO)c(I)c(N(CCO)C(C)=O)c1I` [Compound 35, N-[3-N-methylacetamido-5-N-(β-hydroxyethyl)-acetamido-2,4,6-triiodobenzoyl]-N-methylglucamine], the “Intracerebral LD50” value is above 750 mgI/kg in the data set with mice [2] (setting [5]) and above 2000 mgI/kg with mice [2] (400 mgI/ml, dose 0.10 ml/20 g mouse). In addition, the solubility in “Solubility in water” is above 500 mg/mL. In data set [3], this molecule registered an Osmolality of 0.61 mol/kg.

`CC(=O)N(CCO)c1c(I)c(C(=O)N(C)CC(O)CO)c(I)c(N(CCO)C(C)=O)c1I` (stereo not drawn) [Compound 44]: the “Intracerebral LD50” value with mice [2] (setting [5]) was above 750 mgI/kg; in the data set with mice [2] (setting [6]) it was above 1500 mgI/kg. The solubility in “Solubility in water” was above 500 mg/mL. In data set [3], this molecule came in with an Osmolality of 0.53 mol/kg.

For the molecule `O=S(=O)(O)CI` [iodomethane sulphonate], in data set [4], the Absorption result is listed as “quite rapidly absorbed”; the Toxicity in use result is “too toxic for cisternography, ventriculography and cervical or thoracic myelography”.

Source of the values: patent publication US4021481A, “Amido derivatives of 2,4,6-triiodobenzoic acids containing at least one N-hydroxyalkyl and at least two hydroxyl groups” (Nyegaard & Co. A/S, priority 1969, dated 1977).
